{"source": "patent EP0492113A2", "about": "“Herbicide resistant AHAS deletion mutants” (priority 1990, dated 1992)", "key": {"[1]": {"biological_target": "T1, Trp574-->Leu substitution mutant allele of the Arabidopsis AHAS (Arabidopsis thaliana, UniProt P17597, W574L)", "T1 construct": "expressed in transfected cells; host or cells: leaf tissue of transgenic tobacco (Wisconsin 38 background), Agrobacterium LBA4404 / pBIN19 with the 5.5 kb XbaI genomic fragment", "T1 sequence (P17597 56-670 W574L)": "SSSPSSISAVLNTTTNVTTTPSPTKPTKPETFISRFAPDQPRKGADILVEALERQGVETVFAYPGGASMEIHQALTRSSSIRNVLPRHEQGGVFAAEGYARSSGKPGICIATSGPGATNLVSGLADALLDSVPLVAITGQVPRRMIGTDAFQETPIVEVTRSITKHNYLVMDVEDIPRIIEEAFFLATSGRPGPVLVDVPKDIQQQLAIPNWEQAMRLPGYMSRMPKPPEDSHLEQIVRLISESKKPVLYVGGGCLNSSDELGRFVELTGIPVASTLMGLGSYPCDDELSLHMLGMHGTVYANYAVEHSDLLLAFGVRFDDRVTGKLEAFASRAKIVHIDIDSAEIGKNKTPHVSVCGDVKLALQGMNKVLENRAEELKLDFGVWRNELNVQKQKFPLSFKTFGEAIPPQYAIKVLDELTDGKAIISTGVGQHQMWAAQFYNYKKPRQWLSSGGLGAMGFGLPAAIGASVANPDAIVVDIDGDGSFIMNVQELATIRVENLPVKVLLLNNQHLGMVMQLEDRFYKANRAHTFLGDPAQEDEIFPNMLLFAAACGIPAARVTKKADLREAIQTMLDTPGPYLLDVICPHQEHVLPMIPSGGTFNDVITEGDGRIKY", "assay": "AHAS enzyme assay (leaf tissue) of tobacco transformants 33-1 and 46-2", "assay_type": "biochemical", "conditions": "leaf extracts of kanamycin resistant transformants 33-1 and 46-2", "protocol": "AHAS enzyme assay (leaf tissue) - Shortly after transfer to the greenhouse, extracts each of the kanamycin resistant transformants are prepared and assayed for insensitivity to the imidazolinone Pursuit® herbicide. Acetohydroxyacid synthase is extracted and assayed as described in the previous section. […] This Trp574 deletion transformant is selfed and backcrossed to Wisconsin 38.\nThe extraction and assay for Arabidopsis AHAS in bacterial cells is essentially as described by Singh, et. al. (J. Chromatography 444: 251-261, 1988). The bacterial pellet is powered in liquid nitrogen and homogenized in 100mM potassium phosphate buffer (pH 7.5) containing 10mM pyruvate, 5mM magnesium chloride, 5mM Na₂-EDTA, 100um flavin adenine dinucleotide (FAD), 1mM valine, 1mM leucine, 10%(v/v) glycerol and 10mM cysteine. The homogenate is filtered through a nylon cloth (53uM mesh) and centrifuged at 25,000 x g for 20 minutes. The supernatant fraction is brought to 50% saturation with respect to ammonium sulfate and allowed to stand for 20-30 minutes on ice. […]\nAHAS activity in the presence or absence of herbicide is measured by estimation of the product, acetolactate, after conversion by acid decarboxylation to acetoin. […] The acetoin formed is determined by incubating with creatine (0.17%) and 1-naphthol (1.7%) by the method of Westerfeld (J. Biol. Chem. 161: 495-502, 1945). […]"}, "[2]": {"test_system": "selfed progeny of the transgenic tobacco plant (10-1) containing the Trp574 deletion mutation of Arabidopsis AHAS", "assay": "Postemergence spray of tobacco, selfed progeny of transgenic plant 10-1", "assay_type": "in vivo", "conditions": "for plant growth: 25 days after spraying, Figure 2(a); for Tobacco Mean FW: (5 reps each): Transgenic Progeny, four and one-half weeks", "description": "All three photographs were taken 25 days after spraying. In all photographs, control plants (a wild-type herbicide sensitive tobacco cultivar, Wisconsin 38[W38]) are in the front row. • (a) W38 Control and 10-1 Self - W38 represents the control and 10-1 the selfed transgenic tobacco progeny. At 0 g/ha Pursuit®, both the W38 and the 10-1 look similar. […] 0 x 10-1 represents W38 as the maternal parent (0) and 10-1 as the paternal parent. The results are very similar to that seen in the 10-1 selfed photograph. • (c) W38 Control and 10-1 x 0 - W38 as previously described. 10-1 x 0 represents 10-1 as the maternal parent and W38 as the paternal parent (0). The results are very similar to that seen in the 10-1 selfed photograph except that in this photo segregation of the herbicide resistance trait can be seen in the 10-1 progeny.\nIn a more quantitative assay, seed of selfed progeny of the transgenic tobacco plant (10-1) containing the Trp574 deletion mutation of Arabidopsis AHAS as well as seeds of the susceptible parental cultivar \"Wisconsin 38\" are planted in Metro Mix 350™ in 5\" Azalea pots. The seedlings are thinned to the single most vigorous seedling after 2 days. Eleven days later, these plants are sprayed postemergence with Pursuit® at 0, 10, 20, 40, 80 and 160 g/ha. Five plants of each tobacco type (transgenic and control) are sprayed per herbicide rate. Tween 20™ is added at 0.25 v/v to the herbicide solutions prior to spraying. The herbicide is applied with a laboratory belt sprayer at a rate of 400 L/ha at a distance 18\" above the plants with a belt speed of 8.2 sec/rev and sprayer nozzle #65015E. Plant heights are measured 1, 2, 3, and 4 weeks after treatment, plant fresh weight data is collected at four and one-half weeks."}, "10-1 x 0": {"test_system": "10-1 x 0", "assay": "Tobacco seed assay on herbicide medium, 10-1 x 0", "assay_type": "in vivo", "conditions": "5 µM in medium; twenty seeds per dish; after three weeks", "protocol": "Seeds resulting from transgenic plant 10-1 are also assayed for resistance to the imidazolinone Pursuit®. Seeds are plated onto medium containing Pursuit® at 0, 1.25, 2.5, 3.75, and 5.0 µM. Twenty seeds are plated per petri dish, with two dishes per treatment. Herbicide tolerance of seedlings is evaluated after three weeks. […]"}}}
{"smiles": "CCc1cnc(C2=NC(C)(C(C)C)C(=O)N2)c(C(=O)O)c1", "note": "(stereo not shown) [Pursuit®]", "values": [{"measurement": "AHAS activity in the presence of herbicide", "setting": "[1]", "value": "exhibit AHAS activity"}, {"measurement": "plant growth", "setting": "[2]; 80 g/ha post-emergence", "value": "slightly inhibited"}, {"measurement": "plant growth", "setting": "[2]; 160 g/ha post-emergence", "value": "clearly inhibited"}, {"measurement": "Tobacco Mean FW: (5 reps each)", "setting": "[2]; 10 g/ha postemergence", "value": 36.4, "unit": "g"}, {"measurement": "Tobacco Mean FW: (5 reps each)", "setting": "[2]; 20 g/ha postemergence", "value": 28.8, "unit": "g"}, {"measurement": "Tobacco Mean FW: (5 reps each)", "setting": "[2]; 40 g/ha postemergence", "value": 20.9, "unit": "g"}, {"measurement": "Tobacco Mean FW: (5 reps each)", "setting": "[2]; 80 g/ha postemergence", "value": 26.5, "unit": "g"}, {"measurement": "Tobacco Mean FW: (5 reps each)", "setting": "[2]; 160 g/ha postemergence", "value": 21.4, "unit": "g"}, {"measurement": "tolerance to post-emergence applications, relative to the concentration lethal to control tobacco plants", "setting": "[2]; progeny from 10-1", "value": "4-8 x"}, {"measurement": "herbicide tolerance, applied postemergence", "setting": "[2]; rates 10 to 160 g/ha", "value": "high degree of tolerance"}, {"measurement": "D (Damaged), number of seedlings per dish", "setting": "10-1 x 0", "value": 9}, {"measurement": "R (Resistant), number of seedlings per dish", "setting": "10-1 x 0", "value": 0}, {"measurement": "S (Susceptible), number of seedlings per dish", "setting": "10-1 x 0", "value": 11}]}
